Type in all cases: in vivo
The subject of one data set is Indica rice. Nature of the data set: Post-emergence test experiment (Table 4), crop safety. Particulars: after 3 weeks. From the text: (§1) The activity level standard of harmful plants destruction (i. e. growth inhibition rate) is as follows: • Level 5: the growth inhibition rate is greater than 85%; • Level 4: the growth inhibition rate is equal to or greater than 60% and less than 85%; • Level 3: the growth inhibition rate is equal to or greater than 40% and less than 60%; • Level 2: the growth inhibition rate is equal to or greater than 20% and less than 40%; • Level 1: the growth inhibition rate is equal to or greater than 5% and less than 20%; • Level 0: the growth inhibition rate is less than 5%;
(§2) The above described growth inhibition rate is fresh weight inhibition rate.
(§3) Post-emergence test experiment: Monocotyledonous and dicotyledonous weed seeds and main crop seeds (i. e. wheat, corn, rice, soybean, cotton, oilseed, millet and sorghum.) were put into a plastic pot loaded with soil. Then covered with 0.5-2 cm soil, the seeds were allowed to grow in good greenhouse environment. The test plants were treated at 2-3 leaf stage 2 weeks after sowing. The test compounds of the invention were dissolved with acetone respectively, then added with tween-80, and using 1.5 liters per hectare of an emulsible concentrate of methyl oleate as a synergist, and diluted by certain amount of water to certain concentration. The solution was sprayed to the plants with a sprayer. Then the plants were cultured for 3 weeks in the greenhouse, and the experiment result of weed controlling effect after 3 weeks was listed in tables 3-4.
(§4) […] Echinochloa crusgalli and Cyperus iria were collected from Ningxia Hui Autonomous Region of China, which had evolved resistance to ALS inhibiting herbicides. • Control compound A:

The subject of the next data set is Japonica rice. Described as above. Particulars: after 3 weeks.
Excerpt: as §1, §2, §3, §4

For data set [1], the system named is ALS resistant Cyperus iria. Nature of the data set: Post-emergence test experiment (Table 4), weed control. Particulars: after 3 weeks.
Excerpt: as §1, §2, §3, §4

Data set [2] has as its system ALS resistant Echinochloa crusgalli. The description is as above. Particulars: after 3 weeks.
Excerpt: as §1, §2, §3, §4

The test system of a further data set is rice (japonica rice). Description: Transplanted rice safety evaluation. Particulars: 1000 g/ha, transplanted 3-leaf stage japonica rice, treated 5 days after transplantation, 21 days after treatment.
Excerpt: as §1
(§5) Transplanted rice safety evaluation and weed control effect evaluation in rice field:
In addition, the rice field soil that loaded into the 1/1,000,000 ha pot was leveled to keep water storage at 3-4 cm depth. The 3-leaf stage rice (japonica rice) was transplanted at 3 cm of transplanting depth the next day. The compound of the present invention was treated by the same way after 5 days of transplantation.
(§6) The fertility condition of Monochoria vaginalis 14 days and rice 21 days after the treatment of the compound of the invention with the naked eye.

Data set [3] has as its system Monochoria vaginalis. Nature of the data set: Weed control effect evaluation in rice field. Particulars: paddy water application at 0.5 leaf stage, 14 days after treatment, weeds resistant to pyrazosulfuron-ethyl and penoxsulam.
Excerpt: as §1, §5
Rice field soil was loaded into a 1/1,000,000 ha pot. The seeds of Monochoria vaginalis were sowed and gently covered with soil, then left to stand still in greenhouse in the state of 0.5-1 cm of water storage. It was kept at 3-4 cm of water storage thereafter. The weeds were treated by dripping the WP or SC water diluents prepared according to the common preparation method of the compounds of the present invention with pipette homogeneously to achieve specified effective amount when Monochoria vaginalis reached 0. 5 leaf stage.
as §6
Note: The seeds of Monochoria vaginalis were collected from Heilongjing Province of China.

The next data set deals with Abutilon theophrasti. Description: Post-emergence test experiment (Table 3, 1000 g/ha). Particulars: post-emergence spray, after 3 weeks, fresh weight inhibition. In outline: (§7)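 Activity graded levels 0-5 by fresh-weight inhibition (level 5 above 85%, level 0 below 5%), assessed 3 weeks after treatment. Plants grown in greenhouse pots were sprayed post-emergence at 2-3 leaves using acetone/tween-80 solutions with methyl oleate synergist (1.5 L/ha).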

The test system of another data set is Digitaria sanguinalis. The data set is described as above. Particulars: post-emergence spray, after 3 weeks, fresh weight inhibition. A digest of the protocol:
as §7

In the next data set the test system is Galium spurium. Described as above. Particulars: post-emergence spray, after 3 weeks, fresh weight inhibition. In outline: as §7
In the next data set the test system is Leptochloa chinensis. The data set is described as above. Particulars: post-emergence spray, after 3 weeks, fresh weight inhibition. A digest of the protocol: as §7
The subject of data set [4] is Monochoria vaginalis. Described as above. Particulars: post-emergence spray, after 3 weeks, fresh weight inhibition. In outline:
as §7

Another data set deals with Setaria viridis. The description is as above. Particulars: post-emergence spray, after 3 weeks, fresh weight inhibition. A digest of the protocol: as §7
Setting [5] is: 600 g/ha active ingredient, plus water 450 kg/ha.

Structures are written as SMILES.

As for `COc1cc(OC)nc(Oc2cccc(Oc3nc(OC)cc(OC)n3)c2C(=O)O)n1` [Bispyribac-sodium, reference compound], the “Indica rice, activity level (growth inhibition rate)” value in the data set with Indica rice (100 g/ha) is 2 (Level 2: the growth inhibition rate is equal to or greater than 20% and less than 40%). The “Japonica rice, activity level (growth inhibition rate)” value in the data set with Japonica rice (100 g/ha) was 4 (Level 4: the growth inhibition rate is equal to or greater than 60% and less than 85%). Besides, the “ALS resistant Cyperus iria, activity level (growth inhibition rate)” value in data set [1] (100 g/ha) is 1 (Level 1: the growth inhibition rate is equal to or greater than 5% and less than 20%). Moreover, the “ALS resistant Echinochloa crusgalli, activity level (growth inhibition rate)” value in data set [2] (100 g/ha) is 1 (Level 1: the growth inhibition rate is equal to or greater than 5% and less than 20%).
Turning to `CSC(=O)C(C)Oc1ncc(Cl)c(N)c1Cl` (centres unmarked) [Compound 3], the “Indica rice, activity level (growth inhibition rate)” value with Indica rice (setting [5]) is reported as 0 (Level 0: the growth inhibition rate is less than 5%). In addition, in the data set with Japonica rice (setting [5]), the “Japonica rice, activity level (growth inhibition rate)” value is on record as 0 (Level 0: the growth inhibition rate is less than 5%). In data set [1] (setting [5]), the “ALS resistant Cyperus iria, activity level (growth inhibition rate)” value is reported as 5 (Level 5: the growth inhibition rate is greater than 85%). In addition, the “ALS resistant Echinochloa crusgalli, activity level (growth inhibition rate)” value in [2] (setting [5]) was 5 (Level 5: the growth inhibition rate is greater than 85%). The “Rice, activity standard level 0-5 (safety)” value (“Rice … (safety)” below) in the data set with rice (japonica rice) is 0 (Level 0: the growth inhibition rate is less than 5%). Further, the “Monochoria Vaginalis, activity standard level 0-5” value in the data set on Monochoria vaginalis [3] (1000 g/ha) is recorded as 5 (Level 5: the growth inhibition rate is greater than 85%). Also, the “Activity level (growth inhibition rate) Abutilon theophrasti” value with Abutilon theophrasti is reported as 5 (Level 5: the growth inhibition rate is greater than 85%). Besides, in the data set with Digitaria sanguinalis, the “Activity level (growth inhibition rate) Digitaria sanguinalis” value is reported as 5 (Level 5: the growth inhibition rate is greater than 85%). Moreover, in the data set with Galium spurium, the “Activity level (growth inhibition rate) Galium spurium” value is 5 (Level 5: the growth inhibition rate is greater than 85%). In the data set on Leptochloa chinensis, the “Activity level (growth inhibition rate) Leptochloa chinensis” value is recorded as 5 (Level 5: the growth inhibition rate is greater than 85%). Also, the “Activity level (growth inhibition rate) Monochoria Vaginalis” value in the data set on Monochoria vaginalis [4] is given as 5 (Level 5: the growth inhibition rate is greater than 85%). Further, the “Activity level (growth inhibition rate) Setaria viridis” value in the data set on Setaria viridis is 5 (Level 5: the growth inhibition rate is greater than 85%).
As for `CSC(=O)C(C)Oc1nc(F)c(Cl)c(N)c1Cl` (centres unmarked) [Compound 4], the “Indica rice, activity level (growth inhibition rate)” value with Indica rice (setting [5]) was 0 (Level 0: the growth inhibition rate is less than 5%). Also, the “Japonica rice, activity level (growth inhibition rate)” value with Japonica rice (setting [5]) is given as 0 (Level 0: the growth inhibition rate is less than 5%). The “ALS resistant Cyperus iria, activity level (growth inhibition rate)” value in data set [1] (setting [5]) is given as 5 (Level 5: the growth inhibition rate is greater than 85%). Moreover, the “ALS resistant Echinochloa crusgalli, activity level (growth inhibition rate)” value in [2] (setting [5]) is given as 5 (Level 5: the growth inhibition rate is greater than 85%). In the data set with rice (japonica rice), the “Rice … (safety)” value is recorded as 0 (Level 0: the growth inhibition rate is less than 5%). Besides, in the data set on Monochoria vaginalis [3] (1000 g/ha), the “Monochoria Vaginalis, activity standard level 0-5” value is reported as 5 (Level 5: the growth inhibition rate is greater than 85%). Moreover, the “Activity level (growth inhibition rate) Abutilon theophrasti” value in the data set on Abutilon theophrasti is listed as 5 (Level 5: the growth inhibition rate is greater than 85%). Besides, the “Activity level (growth inhibition rate) Digitaria sanguinalis” value with Digitaria sanguinalis is 5 (Level 5: the growth inhibition rate is greater than 85%). Also, the “Activity level (growth inhibition rate) Galium spurium” value with Galium spurium was 5 (Level 5: the growth inhibition rate is greater than 85%). In addition, in the data set on Leptochloa chinensis, the “Activity level (growth inhibition rate) Leptochloa chinensis” value is recorded as 5 (Level 5: the growth inhibition rate is greater than 85%). Moreover, the “Activity level (growth inhibition rate) Monochoria Vaginalis” value in the data set on Monochoria vaginalis [4] was 5 (Level 5: the growth inhibition rate is greater than 85%). The “Activity level (growth inhibition rate) Setaria viridis” value in the data set with Setaria viridis is 5 (Level 5: the growth inhibition rate is greater than 85%).
For the molecule `CSC(=O)C(C)Oc1nc(F)c(C)c(N)c1C` (centres unmarked) [Compound 7], the “Indica rice, activity level (growth inhibition rate)” value in the data set on Indica rice (setting [5]) is 0 (Level 0: the growth inhibition rate is less than 5%). Moreover, in the data set on Japonica rice (setting [5]), the “Japonica rice, activity level (growth inhibition rate)” value is given as 0 (Level 0: the growth inhibition rate is less than 5%). Further, in data set [1] (setting [5]), the “ALS resistant Cyperus iria, activity level (growth inhibition rate)” value is 5 (Level 5: the growth inhibition rate is greater than 85%). Moreover, in data set [2] (setting [5]), the “ALS resistant Echinochloa crusgalli, activity level (growth inhibition rate)” value is recorded as 5 (Level 5: the growth inhibition rate is greater than 85%). Moreover, the “Rice … (safety)” value in the data set on rice (japonica rice) is reported as 0 (Level 0: the growth inhibition rate is less than 5%). The “Monochoria Vaginalis, activity standard level 0-5” value in the data set on Monochoria vaginalis [3] (1000 g/ha) is 5 (Level 5: the growth inhibition rate is greater than 85%). The “Activity level (growth inhibition rate) Abutilon theophrasti” value in the data set on Abutilon theophrasti is on record as 5 (Level 5: the growth inhibition rate is greater than 85%). Besides, the “Activity level (growth inhibition rate) Digitaria sanguinalis” value with Digitaria sanguinalis was 5 (Level 5: the growth inhibition rate is greater than 85%). Also, the “Activity level (growth inhibition rate) Galium spurium” value in the data set with Galium spurium is given as 5 (Level 5: the growth inhibition rate is greater than 85%). Moreover, the “Activity level (growth inhibition rate) Leptochloa chinensis” value with Leptochloa chinensis was 5 (Level 5: the growth inhibition rate is greater than 85%). In addition, the “Activity level (growth inhibition rate) Monochoria Vaginalis” value in the data set with Monochoria vaginalis [4] is 5 (Level 5: the growth inhibition rate is greater than 85%). Further, the “Activity level (growth inhibition rate) Setaria viridis” value in the data set with Setaria viridis is listed as 5 (Level 5: the growth inhibition rate is greater than 85%).
As to `CCSC(=O)C(C)Oc1nc(F)c(Cl)c(N)c1Cl` (centres unmarked) [Compound 66], the “Indica rice, activity level (growth inhibition rate)” value with Indica rice (setting [5]) is recorded as 0 (Level 0: the growth inhibition rate is less than 5%). The “Japonica rice, activity level (growth inhibition rate)” value in the data set with Japonica rice (setting [5]) is on record as 0 (Level 0: the growth inhibition rate is less than 5%). The “ALS resistant Cyperus iria, activity level (growth inhibition rate)” value in data set [1] (setting [5]) is reported as 5 (Level 5: the growth inhibition rate is greater than 85%). In data set [2] (setting [5]), the “ALS resistant Echinochloa crusgalli, activity level (growth inhibition rate)” value is given as 5 (Level 5: the growth inhibition rate is greater than 85%). Moreover, the “Rice … (safety)” value in the data set with rice (japonica rice) is recorded as 0 (Level 0: the growth inhibition rate is less than 5%). Besides, the “Monochoria Vaginalis, activity standard level 0-5” value in the data set on Monochoria vaginalis [3] (1000 g/ha) was 5 (Level 5: the growth inhibition rate is greater than 85%). Besides, the “Activity level (growth inhibition rate) Abutilon theophrasti” value in the data set with Abutilon theophrasti is 5 (Level 5: the growth inhibition rate is greater than 85%). Moreover, the “Activity level (growth inhibition rate) Digitaria sanguinalis” value with Digitaria sanguinalis is 5 (Level 5: the growth inhibition rate is greater than 85%). For the same molecule, the “Activity level (growth inhibition rate) Galium spurium” value in the data set on Galium spurium is 5 (Level 5: the growth inhibition rate is greater than 85%). Also, the “Activity level (growth inhibition rate) Leptochloa chinensis” value with Leptochloa chinensis was 5 (Level 5: the growth inhibition rate is greater than 85%). In addition, in the data set on Monochoria vaginalis [4], the “Activity level (growth inhibition rate) Monochoria Vaginalis” value is on record as 5 (Level 5: the growth inhibition rate is greater than 85%). In addition, in the data set with Setaria viridis, the “Activity level (growth inhibition rate) Setaria viridis” value is 5 (Level 5: the growth inhibition rate is greater than 85%).
Regarding `COc1cnc(OC)n2nc(NS(=O)(=O)c3c(OCC(F)F)cccc3C(F)(F)F)nc12` [Penoxsulam, reference compound], the “Monochoria Vaginalis, activity standard level 0-5” value with Monochoria vaginalis [3] (50 g/ha) is 1 (Level 1: the growth inhibition rate is equal to or greater than 5% and less than 20%).

The values are drawn from patent publication US12391648B2, “Pyridyloxy thioester derivative and preparation method therefor, herbicidal composition, and application” (Qingdao Kingagroot Chemical Compound Co., Ltd., priority 2018, dated 2025).
